In patent US11208412B2 (DAEGU-GYEONGBUK MEDICAL INNOVATION FOUNDATION, priority 2017, dated 2021):
Like-named read-outs stand apart in the source and are kept apart here.

How the values were obtained:
Assay in all cases: Kinase selectivity, DiscoverX scanMAX Kinase assay panel (% control)
Format in all cases: binding
[1] = biological target: T1, kinases of the scanMAX Kinase assay panel (Homo sapiens, UniProt O43318); settings: kinase TAK1; 1 uM in DMSO
T1 construct: purchased DiscoverX Co. (contract measurement) scanMAX Kinase assay panel
T1 sequence (O43318 1-606): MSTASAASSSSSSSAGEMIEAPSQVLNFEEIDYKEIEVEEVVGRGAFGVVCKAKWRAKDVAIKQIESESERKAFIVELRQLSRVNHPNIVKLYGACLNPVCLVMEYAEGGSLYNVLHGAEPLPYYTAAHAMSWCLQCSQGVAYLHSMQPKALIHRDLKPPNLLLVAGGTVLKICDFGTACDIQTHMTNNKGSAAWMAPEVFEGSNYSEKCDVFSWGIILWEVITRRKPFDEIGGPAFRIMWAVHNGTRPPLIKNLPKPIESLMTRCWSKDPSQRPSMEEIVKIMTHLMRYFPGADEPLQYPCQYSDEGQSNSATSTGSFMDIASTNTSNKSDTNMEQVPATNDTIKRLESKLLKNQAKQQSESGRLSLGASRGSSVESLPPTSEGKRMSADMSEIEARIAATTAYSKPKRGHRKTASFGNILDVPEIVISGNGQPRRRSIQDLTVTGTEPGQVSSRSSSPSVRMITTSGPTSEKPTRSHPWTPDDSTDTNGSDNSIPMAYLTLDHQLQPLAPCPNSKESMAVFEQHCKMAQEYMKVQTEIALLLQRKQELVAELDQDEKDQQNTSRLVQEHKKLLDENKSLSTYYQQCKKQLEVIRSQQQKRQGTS
Procedure, shortened: (§1)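 Each enzyme is treated with drug at 1 uM in DMSO, then signal is scaled between a positive control (0%) and DMSO (100%) to give % control. Kinases with % control under 35% are scored as inhibited.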

[2] = biological target: T2, kinases of the scanMAX Kinase assay panel (Homo sapiens, UniProt P00533, L861Q); settings: EGFR(L861Q); 1 uM
T2 construct: purchased DiscoverX Co. (contract measurement) scanMAX Kinase assay panel
Procedure, shortened: as §1

[3] = biological target: T3, kinases of the scanMAX Kinase assay panel (Homo sapiens, UniProt P29317); settings: EPHA2; 1 uM
T3 construct: purchased DiscoverX Co. (contract measurement) scanMAX Kinase assay panel
Procedure, shortened: as §1

[4] = biological target: T4, kinases of the scanMAX Kinase assay panel (Homo sapiens, UniProt P36888, D835V); settings: FLT3(D835V); 1 uM
T4 construct: purchased DiscoverX Co. (contract measurement) scanMAX Kinase assay panel
T4 sequence (P36888 27-993 D835V): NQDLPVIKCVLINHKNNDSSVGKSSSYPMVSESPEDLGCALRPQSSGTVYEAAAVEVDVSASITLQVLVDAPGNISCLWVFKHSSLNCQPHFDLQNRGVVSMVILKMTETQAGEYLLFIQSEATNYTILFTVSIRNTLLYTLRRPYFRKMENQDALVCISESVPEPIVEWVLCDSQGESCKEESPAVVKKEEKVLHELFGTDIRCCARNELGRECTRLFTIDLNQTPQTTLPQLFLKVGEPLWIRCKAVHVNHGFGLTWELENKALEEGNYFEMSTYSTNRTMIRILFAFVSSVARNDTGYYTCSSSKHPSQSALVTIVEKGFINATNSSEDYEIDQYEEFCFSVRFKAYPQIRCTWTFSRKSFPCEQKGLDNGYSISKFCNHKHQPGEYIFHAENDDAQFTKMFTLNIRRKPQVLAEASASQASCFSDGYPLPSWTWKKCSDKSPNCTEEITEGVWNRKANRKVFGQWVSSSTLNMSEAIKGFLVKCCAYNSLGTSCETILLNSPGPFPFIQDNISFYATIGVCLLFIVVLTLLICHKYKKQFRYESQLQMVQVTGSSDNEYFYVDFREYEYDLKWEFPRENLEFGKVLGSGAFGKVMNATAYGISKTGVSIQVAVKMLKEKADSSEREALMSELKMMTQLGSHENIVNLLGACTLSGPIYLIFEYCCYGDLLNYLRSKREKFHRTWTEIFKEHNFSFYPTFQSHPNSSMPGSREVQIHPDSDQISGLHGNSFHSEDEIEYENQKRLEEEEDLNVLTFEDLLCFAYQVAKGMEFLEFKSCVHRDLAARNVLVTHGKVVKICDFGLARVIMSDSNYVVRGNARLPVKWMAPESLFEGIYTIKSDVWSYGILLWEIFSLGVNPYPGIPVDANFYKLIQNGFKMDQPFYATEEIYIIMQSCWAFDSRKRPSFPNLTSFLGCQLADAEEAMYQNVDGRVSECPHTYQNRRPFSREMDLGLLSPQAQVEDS
Procedure, shortened: as §1

[5] = biological target: T5, kinases of the scanMAX Kinase assay panel (Homo sapiens, UniProt Q02779); settings: MLK2; 1 uM
T5 construct: purchased DiscoverX Co. (contract measurement) scanMAX Kinase assay panel
Procedure, shortened: as §1

[6] = biological target: T6, kinases of the scanMAX Kinase assay panel (Homo sapiens, UniProt Q96J92); settings: kinase WNK4; 1 uM in DMSO
T6 construct: purchased DiscoverX Co. (contract measurement) scanMAX Kinase assay panel
Procedure, shortened: as §1

[7] = biological target: T7, kinases of the scanMAX Kinase assay panel (Homo sapiens, UniProt Q9UK32); settings: 1 uM in DMSO
T7 construct: purchased DiscoverX Co. (contract measurement) scanMAX Kinase assay panel
Procedure, shortened: as §1

[8] = biological target: T8, kinases of the scanMAX Kinase assay panel (Homo sapiens, UniProt Q9Y243); settings: AKT3; 1 uM
T8 construct: purchased DiscoverX Co. (contract measurement) scanMAX Kinase assay panel
Procedure, shortened: as §1

[9] = kinase RSK4(Kin.Dom.1-N-terminal), read-out: % control, RSK4(Kin.Dom.1-N-terminal)
[10] = kinase RSK4(Kin.Dom.2-C-terminal), read-out: % control, RSK4(Kin.Dom.2-C-terminal)

T3 sequence (P29317 24-976): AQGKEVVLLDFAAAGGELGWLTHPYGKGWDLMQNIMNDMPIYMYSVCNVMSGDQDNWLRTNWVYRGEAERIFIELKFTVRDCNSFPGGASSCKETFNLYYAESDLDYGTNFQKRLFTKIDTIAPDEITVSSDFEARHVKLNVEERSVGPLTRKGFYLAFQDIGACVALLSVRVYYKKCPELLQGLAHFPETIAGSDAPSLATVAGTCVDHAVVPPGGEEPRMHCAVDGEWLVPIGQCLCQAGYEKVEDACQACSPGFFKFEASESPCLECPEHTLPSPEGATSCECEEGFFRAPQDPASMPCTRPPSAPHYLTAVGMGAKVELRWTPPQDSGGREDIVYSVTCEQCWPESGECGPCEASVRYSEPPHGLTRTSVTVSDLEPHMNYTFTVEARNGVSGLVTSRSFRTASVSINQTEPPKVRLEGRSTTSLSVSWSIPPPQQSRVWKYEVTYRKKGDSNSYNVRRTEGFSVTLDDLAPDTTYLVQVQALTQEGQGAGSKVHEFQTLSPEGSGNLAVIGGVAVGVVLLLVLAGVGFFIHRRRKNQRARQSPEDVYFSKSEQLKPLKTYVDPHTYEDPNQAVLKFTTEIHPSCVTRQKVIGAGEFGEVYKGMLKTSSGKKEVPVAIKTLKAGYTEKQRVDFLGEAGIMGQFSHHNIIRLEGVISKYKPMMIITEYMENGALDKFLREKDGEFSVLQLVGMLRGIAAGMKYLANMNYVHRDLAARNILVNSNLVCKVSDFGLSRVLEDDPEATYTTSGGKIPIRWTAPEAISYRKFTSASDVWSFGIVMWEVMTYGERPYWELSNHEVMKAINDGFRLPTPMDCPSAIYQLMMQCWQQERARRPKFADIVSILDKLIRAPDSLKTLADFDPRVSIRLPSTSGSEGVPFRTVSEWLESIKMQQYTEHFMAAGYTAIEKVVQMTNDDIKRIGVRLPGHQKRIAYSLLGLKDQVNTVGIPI
T7 sequence (Q9UK32 whole entry): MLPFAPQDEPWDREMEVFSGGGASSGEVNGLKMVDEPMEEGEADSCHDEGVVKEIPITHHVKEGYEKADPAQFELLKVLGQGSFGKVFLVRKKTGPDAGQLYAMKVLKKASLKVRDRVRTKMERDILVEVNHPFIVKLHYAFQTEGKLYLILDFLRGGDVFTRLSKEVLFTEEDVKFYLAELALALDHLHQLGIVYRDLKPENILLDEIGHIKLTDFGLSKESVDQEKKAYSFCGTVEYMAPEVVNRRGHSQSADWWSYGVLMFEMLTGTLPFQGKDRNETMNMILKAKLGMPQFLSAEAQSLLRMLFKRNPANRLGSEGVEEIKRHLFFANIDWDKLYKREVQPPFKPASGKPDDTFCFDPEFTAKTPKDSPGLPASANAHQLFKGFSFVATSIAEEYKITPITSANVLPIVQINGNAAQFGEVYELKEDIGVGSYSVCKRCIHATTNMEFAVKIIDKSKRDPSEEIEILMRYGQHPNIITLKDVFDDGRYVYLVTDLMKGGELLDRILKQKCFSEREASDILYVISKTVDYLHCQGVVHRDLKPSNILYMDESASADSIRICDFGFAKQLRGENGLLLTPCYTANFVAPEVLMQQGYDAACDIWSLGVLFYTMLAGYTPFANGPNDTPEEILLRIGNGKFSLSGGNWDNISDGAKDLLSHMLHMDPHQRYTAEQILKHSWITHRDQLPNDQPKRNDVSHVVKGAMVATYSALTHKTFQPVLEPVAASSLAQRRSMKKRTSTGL
T2 sequence (P00533 25-1210 L861Q): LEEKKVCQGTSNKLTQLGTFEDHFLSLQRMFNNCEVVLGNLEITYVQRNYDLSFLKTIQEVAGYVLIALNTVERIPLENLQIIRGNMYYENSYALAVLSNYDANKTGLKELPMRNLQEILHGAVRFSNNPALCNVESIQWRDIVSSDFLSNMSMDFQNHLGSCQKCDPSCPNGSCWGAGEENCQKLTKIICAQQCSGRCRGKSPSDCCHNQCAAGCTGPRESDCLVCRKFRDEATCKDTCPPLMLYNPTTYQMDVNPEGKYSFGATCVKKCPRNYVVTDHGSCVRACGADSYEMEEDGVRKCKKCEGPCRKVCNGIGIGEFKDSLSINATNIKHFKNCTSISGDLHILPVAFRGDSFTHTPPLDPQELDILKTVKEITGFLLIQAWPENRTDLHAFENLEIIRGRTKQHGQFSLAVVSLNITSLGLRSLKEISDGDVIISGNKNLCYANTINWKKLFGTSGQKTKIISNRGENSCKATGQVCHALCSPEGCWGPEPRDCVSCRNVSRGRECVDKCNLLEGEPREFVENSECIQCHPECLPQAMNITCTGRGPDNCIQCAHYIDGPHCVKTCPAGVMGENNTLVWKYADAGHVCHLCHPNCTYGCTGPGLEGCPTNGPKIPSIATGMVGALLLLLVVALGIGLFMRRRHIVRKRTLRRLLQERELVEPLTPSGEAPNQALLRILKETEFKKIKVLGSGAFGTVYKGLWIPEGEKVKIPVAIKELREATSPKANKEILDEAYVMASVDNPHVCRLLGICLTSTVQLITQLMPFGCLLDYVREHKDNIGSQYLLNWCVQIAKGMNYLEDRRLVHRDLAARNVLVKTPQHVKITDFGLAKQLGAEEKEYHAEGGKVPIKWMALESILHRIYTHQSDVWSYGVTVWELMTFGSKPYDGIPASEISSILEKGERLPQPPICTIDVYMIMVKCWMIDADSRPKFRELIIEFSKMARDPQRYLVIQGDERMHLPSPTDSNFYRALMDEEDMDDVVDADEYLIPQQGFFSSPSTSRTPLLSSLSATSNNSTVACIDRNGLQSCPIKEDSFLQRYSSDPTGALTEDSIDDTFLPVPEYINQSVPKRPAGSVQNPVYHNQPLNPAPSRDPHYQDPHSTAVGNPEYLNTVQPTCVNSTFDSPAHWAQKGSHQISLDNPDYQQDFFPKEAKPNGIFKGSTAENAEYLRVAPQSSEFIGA
T8 sequence (Q9Y243 whole entry): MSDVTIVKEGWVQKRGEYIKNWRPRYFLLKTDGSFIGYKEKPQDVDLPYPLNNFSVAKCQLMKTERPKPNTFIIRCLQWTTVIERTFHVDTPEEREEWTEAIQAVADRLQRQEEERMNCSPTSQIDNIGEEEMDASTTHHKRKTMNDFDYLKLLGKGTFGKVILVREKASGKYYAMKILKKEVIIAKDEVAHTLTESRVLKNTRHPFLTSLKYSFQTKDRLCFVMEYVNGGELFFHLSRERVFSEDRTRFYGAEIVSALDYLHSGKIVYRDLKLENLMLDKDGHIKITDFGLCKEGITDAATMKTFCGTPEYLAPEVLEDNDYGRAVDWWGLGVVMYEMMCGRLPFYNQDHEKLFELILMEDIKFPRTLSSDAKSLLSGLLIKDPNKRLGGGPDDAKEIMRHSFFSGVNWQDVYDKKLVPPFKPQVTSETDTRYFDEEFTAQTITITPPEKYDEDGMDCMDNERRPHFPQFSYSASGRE
T6 sequence (Q96J92 whole entry): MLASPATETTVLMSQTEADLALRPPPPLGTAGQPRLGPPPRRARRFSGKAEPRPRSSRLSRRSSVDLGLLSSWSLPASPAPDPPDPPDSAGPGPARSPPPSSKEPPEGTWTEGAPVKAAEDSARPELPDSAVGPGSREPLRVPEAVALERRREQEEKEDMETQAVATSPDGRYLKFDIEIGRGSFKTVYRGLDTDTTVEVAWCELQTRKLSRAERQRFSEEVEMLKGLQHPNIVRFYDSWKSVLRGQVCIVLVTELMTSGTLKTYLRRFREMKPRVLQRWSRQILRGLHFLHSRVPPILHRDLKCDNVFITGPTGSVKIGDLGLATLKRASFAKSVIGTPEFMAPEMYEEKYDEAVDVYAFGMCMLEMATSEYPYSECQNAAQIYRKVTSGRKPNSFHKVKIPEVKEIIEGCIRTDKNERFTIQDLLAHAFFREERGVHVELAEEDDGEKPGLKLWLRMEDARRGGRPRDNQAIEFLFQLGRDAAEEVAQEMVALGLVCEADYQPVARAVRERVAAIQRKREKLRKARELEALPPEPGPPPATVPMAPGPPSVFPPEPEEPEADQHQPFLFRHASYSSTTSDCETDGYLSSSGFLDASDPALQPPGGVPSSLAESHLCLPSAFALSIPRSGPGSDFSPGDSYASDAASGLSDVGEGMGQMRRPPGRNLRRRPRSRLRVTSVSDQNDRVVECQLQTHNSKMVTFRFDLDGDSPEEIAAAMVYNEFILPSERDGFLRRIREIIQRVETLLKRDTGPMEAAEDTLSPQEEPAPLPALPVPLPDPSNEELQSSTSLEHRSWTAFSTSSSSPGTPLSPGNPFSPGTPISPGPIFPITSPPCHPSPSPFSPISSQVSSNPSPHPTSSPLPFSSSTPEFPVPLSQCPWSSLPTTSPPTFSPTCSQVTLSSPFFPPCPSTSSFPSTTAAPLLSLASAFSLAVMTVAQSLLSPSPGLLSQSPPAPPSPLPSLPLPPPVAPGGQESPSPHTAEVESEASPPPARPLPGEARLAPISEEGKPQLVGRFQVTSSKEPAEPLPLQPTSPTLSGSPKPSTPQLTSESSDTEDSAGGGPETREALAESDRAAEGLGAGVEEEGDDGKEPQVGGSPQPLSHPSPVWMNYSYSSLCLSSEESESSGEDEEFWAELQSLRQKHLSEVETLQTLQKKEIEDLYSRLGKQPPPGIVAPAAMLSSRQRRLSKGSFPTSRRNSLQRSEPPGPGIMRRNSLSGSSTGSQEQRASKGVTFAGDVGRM

Row | SMILES | remaining binding at 1 µM [1] | remaining binding at 1 µM [2] | remaining binding at 1 µM [3] | remaining binding at 1 µM [4] | remaining binding at 1 µM [5] | remaining binding at 1 µM [6] | remaining binding at 1 µM [7, 9] | remaining binding at 1 µM [7, 10] | remaining binding at 1 µM [8]
1 | CNc1nc(Nc2ccc(C(=O)N3CCOCC3)cc2OC)nc2[nH]cc(C#N)c12 [Example 1, 2-((2-methoxy-4-(morpholine-4-carbonyl)phenyl)amino)-4-(methylamino)-7H-pyrrolo[2,3-d]pyrimidine-5-carbonitrile] | 52% | 100% | 97% | 58% | 90% | 81% | 79% | 77% | 70%
2 | CC1(Nc2nc(Nc3cnn([C@H]4CCN(C5COC5)C[C@@H]4F)c3Cl)nc3[nH]cc(C#N)c23)CC1 [Example 52, 2-((5-chloro-1-((3S,4S)-3-fluoro-1-(oxetane-3-yl)piperidine-4-yl)-1H-pyrazole-4-yl)amino)((1-methylcyclopropyl)amino)-7H-pyrrolo[2,3-d]pyrimidine-5-carbonitrile] | 0.05% | 53% | 79% | 0% | 4.4% | 100% | 7.1% | 75% | 4.5%
3 | CCNc1nc(Nc2ccc(C(=O)N3CCC(N4CCOCC4)CC3)cc2OC)nc2[nH]cc(C(F)(F)F)c12 [Example 104, (4-((4-(ethylamino)-5-(trifluoromethyl)-7H-pyrrolo[2,3-d]pyrimidine-2-yl)amino)-3-methoxyphenyl)(4-morpholinopiperidine-1-yl)methanone] | 100% | 99% | 100% | 0% | 96% | 100% | 95% | 97% | 100%
